The values that follow come from patent US11649255B2, “Indazoles as hematopoietic progenitor kinase 1 (HPK1) inhibitors and methods using same” (1st Biotherapeutics, Inc., priority 2020, dated 2023).

Bounds are passed on as bounds.

This assay deals with recombinant human HPK1 (Homo sapiens (Human), UniProt Q92918). In words: HPK1 kinase assay (ADP-Glo). The format is biochemical. As to conditions: 25 μM ATP, MBP substrate. In a few lines: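 Activity was read as ADP formed, detected by ADP-Glo luminescence after the reaction of 5 ng recombinant human HPK1 with MBP and ATP (stocks 0.5 μg/μl and 25 μM) for 40 min at 30 °C. Buffer was Tris pH 7.5 with MgCl2, BSA and DTT, with compound in 0.5% DMSO. IC50 came from inhibition curves.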
recombinant human HPK1, sequence (Q92918 whole entry): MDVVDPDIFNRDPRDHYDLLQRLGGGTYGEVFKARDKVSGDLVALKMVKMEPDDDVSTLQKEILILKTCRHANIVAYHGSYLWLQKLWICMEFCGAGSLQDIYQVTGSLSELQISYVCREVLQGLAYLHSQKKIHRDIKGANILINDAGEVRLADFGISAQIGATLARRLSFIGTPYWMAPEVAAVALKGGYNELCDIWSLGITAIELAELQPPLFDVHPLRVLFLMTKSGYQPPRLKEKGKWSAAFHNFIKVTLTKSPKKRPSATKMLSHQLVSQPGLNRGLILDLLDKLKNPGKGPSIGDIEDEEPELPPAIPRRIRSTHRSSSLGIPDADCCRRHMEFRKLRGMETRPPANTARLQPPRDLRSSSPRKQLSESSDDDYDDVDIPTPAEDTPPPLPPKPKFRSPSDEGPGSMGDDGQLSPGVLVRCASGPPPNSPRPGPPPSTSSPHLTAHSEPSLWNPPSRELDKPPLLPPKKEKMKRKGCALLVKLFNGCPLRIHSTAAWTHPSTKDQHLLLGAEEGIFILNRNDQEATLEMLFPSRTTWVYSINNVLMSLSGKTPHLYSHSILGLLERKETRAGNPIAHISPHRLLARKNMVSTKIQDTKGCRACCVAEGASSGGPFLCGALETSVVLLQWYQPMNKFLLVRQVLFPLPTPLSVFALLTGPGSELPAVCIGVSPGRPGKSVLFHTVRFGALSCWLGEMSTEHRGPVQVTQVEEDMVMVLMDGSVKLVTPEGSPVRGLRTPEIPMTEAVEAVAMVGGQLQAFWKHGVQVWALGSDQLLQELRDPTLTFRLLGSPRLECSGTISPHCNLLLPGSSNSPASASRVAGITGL

On to `CSc1n[nH]c2cc(F)c(C)c(-c3ccc4nc(NC(=O)[C@@H]5C[C@@H]5F)sc4n3)c12` [Example 148, (1S,2S)-2-fluoro-N-(5-(6-fluoro-5-methyl-3-(methylthio)-1H-indazol-4-yl)thiazolo[5,4-b]pyridin-2-yl)cyclopropane-1-carboxamide], for which the IC50 was above 1000 nM. On to `CCOc1c(F)c(Cl)c(-c2ccc3nc(NC(=O)[C@@H]4C[C@@H]4F)sc3n2)c2cn[nH]c12` [Example 149, (1S,2S)—N-(5-(5-chloro-7-ethoxy-6-fluoro-1H-indazol-4-yl)thiazolo[5,4-b]pyridin-2-yl)-2-fluorocyclopropane-1-carboxamide], for which the half-maximal inhibitory concentration (IC50) is below 100 nM. With `CC(C)c1c(F)cc2[nH]ncc2c1-c1ccc2nc(NC(=O)[C@@H]3C[C@@H]3F)sc2n1` [Example 150, (1S,2S)-2-fluoro-N-(5-(6-fluoro-5-isopropyl-1H-indazol-4-yl)thiazolo[5,4-b]pyridin-2-yl)cyclopropane-1-carboxamide], the 50% inhibitory concentration (IC50) is below 100 nM.

For the compound `Nc1c(F)cc2[nH]ncc2c1-c1ccc2nc(NC(=O)[C@@H]3C[C@@H]3F)sc2n1` [Example 151, (1S,2S)-N-(5-(5-amino-6-fluoro-1H-indazol-4-yl)thiazolo[5,4-b]pyridin-2-yl)-2-fluorocyclopropane-1-carboxamide], the IC50 is above 1000 nM.

In the case of `O=C(Nc1nc2ccc(-c3c(Cl)c(F)cc4[nH]ncc34)nc2s1)[C@@H]1C[C@@H]1F` [Example 153, (1S,2S)-N-(5-(5-chloro-6-fluoro-1H-indazol-4-yl)thiazolo[5,4-b]pyridin-2-yl)-2-fluorocyclopropane-1-carboxamide], the IC50 is below 100 nM.

Turning to `CCN(CC)c1c(F)c(Cl)c(-c2ccc3nc(NC(=O)[C@@H]4C[C@@H]4F)sc3n2)c2cn[nH]c12` [Example 154, (1S,2S)-N-(5-(5-chloro-7-(diethylamino)-6-fluoro-1H-indazol-4-yl)thiazolo[5,4-b]pyridin-2-yl)-2-fluorocyclopropane-1-carboxamide], the 50% inhibitory concentration (IC50) is below 100 nM. Turning to `COc1c(F)cc2[nH]ncc2c1-c1ccc2nc(NC(=O)[C@@H]3C[C@@H]3F)sc2n1` [Example 155, (1S,2S)-2-fluoro-N-(5-(6-fluoro-5-methoxy-1H-indazol-4-yl)thiazolo[5,4-b]pyridin-2-yl)cyclopropane-1-carboxamide], the IC50 is below 100 nM. With `N#Cc1c(F)cc2[nH]ncc2c1-c1ccc2nc(NC(=O)[C@@H]3C[C@@H]3F)sc2n1` [Example 157, (1S,2S)-N-(5-(5-cyano-6-fluoro-1H-indazol-4-yl)thiazolo[5,4-b]pyridin-2-yl)-2-fluorocyclopropane-1-carboxamide] the figure was 101 to 500 nM; with `O=C(Nc1nc2ccc(-c3c(C4CC4)c(F)cc4[nH]ncc34)nc2s1)[C@@H]1C[C@@H]1F` [Example 158, (1S,2S)-N-(5-(5-cyclopropyl-6-fluoro-1H-indazol-4-yl)thiazolo[5,4-b]pyridin-2-yl)-2-fluorocyclopropane-1-carboxamide], 101 to 500 nM; with `CCNc1c(F)c(Cl)c(-c2ccc3nc(NC(=O)[C@@H]4C[C@@H]4F)sc3n2)c2cn[nH]c12` [Example 159, (1S,2S)-N-(5-(5-chloro-7-(ethylamino)-6-fluoro-1H-indazol-4-yl)thiazolo[5,4-b]pyridin-2-yl)-2-fluorocyclopropane-1-carboxamide], below 100 nM.

In the case of `O=C(Nc1nc2ccc(-c3c(Br)c(F)cc4[nH]ncc34)nc2s1)[C@@H]1C[C@@H]1F` [Example 160, (1S,2S)-N-(5-(5-bromo-6-fluoro-1H-indazol-4-yl)thiazolo[5,4-b]pyridin-2-yl)-2-fluorocyclopropane-1-carboxamide], the concentration for half-maximal inhibition (IC50) is below 100 nM. On to `Cc1c(F)c(SCCO)c2[nH]ncc2c1-c1ccc2nc(NC(=O)[C@@H]3C[C@@H]3F)sc2n1` [Example 163, (1S,2S)-2-fluoro-N-(5-(6-fluoro-7-((2-hydroxyethyl)thio)-5-methyl-1H-indazol-4-yl)thiazolo[5,4-b]pyridin-2-yl)cyclopropane-1-carboxamide], for which the IC50 was below 100 nM.
